In ChEMBL document CHEMBL1149799, “Bioactive peroxides as potential therapeutic agents” (Eur J Med Chem, 2008):
Converted amounts (≈) assume the structure as drawn.

How the values were obtained:
[1] = system: PC-3; test: Cytotoxicity against human PC3 cells; format: functional, cell-based
[2] = Cytotoxicity against human HERP3B cells; format: functional
[3] = system: MCF7; test: Cytotoxicity against human MCF7 cells; format: functional, cell-based
[4] = system: KM-20L2; test: Cytotoxicity against human KM20L2 cells; format: functional
[5] = system: P388; test: Cytotoxicity against mouse P388 cells; format: functional, cell-based; conditions: Mus musculus, P388; read-out: ED50 (the source's name)
[6] = system: DU-145; test: Cytotoxicity against human DU145 cells; format: functional, cell-based
[7] = system: SF-268; test: Cytotoxicity against human SF268 cells; format: functional, cell-based
[8] = system: NCI-H460; test: Cytotoxicity against human NCI-H460 cells; format: functional, cell-based
[9] = system: BXPC-3; test: Cytotoxicity against human BXPC3 cells; format: functional
[10] = Cytotoxicity against human H116 cells; format: functional, cell-based
[11] = system: PSN1; test: Cytotoxicity against human PSN1 cells; format: functional, cell-based
[12] = system: T98G; test: Cytotoxicity against human T98G cells; format: functional, cell-based
[13] = system: A549; test: Cytotoxicity against human A549 cells; format: functional, cell-based; conditions: Homo sapiens, A549
[14] = system: SK-BR-3; test: Cytotoxicity against human SKBR3 cells; format: functional, cell-based
[15] = Inhibition of human SKW3 cells adhesion to soluble ICAM1; format: functional, cell-based
[16] = system: UO-31; test: Cytotoxicity against human UO31 cells; format: functional
[17] = system: IGROV-1; test: Cytotoxicity against human IGROV1 cells; format: functional
[18] = system: HCC 2998; test: Cytotoxicity against human HCC2998 cells; format: functional, cell-based
[19] = system: CAKI-1; test: Cytotoxicity against human CAKI1 cells; format: functional
[20] = system: SK-MEL-28; test: Cytotoxicity against human SK-MEL-28 cells; format: functional
[21] = system: NCI-H23; test: Cytotoxicity against human NCI-H23 cells; format: functional, cell-based
[22] = system: UACC-257; test: Cytotoxicity against human UACC257 cells; format: functional
[23] = system: HOP-92; test: Cytotoxicity against human HOP92 cells; format: functional
[24] = system: SW-620; test: Cytotoxicity against human SW620 cells; format: functional
[25] = Cytotoxicity against human K652 cells; format: functional
[26] = system: HCT-116; test: Cytotoxicity against human HCT116 cells; format: functional, cell-based
[27] = system: KM12; test: Cytotoxicity against human KM12 cells; format: functional, cell-based
[28] = system: MDA-N; test: Cytotoxicity against human MDA-N cells; format: functional
[29] = system: HCT-15; test: Cytotoxicity against human HCT15 cells; format: functional, cell-based
[30] = system: TK-10; test: Cytotoxicity against human TK10 cells; format: functional
[31] = Cytotoxicity against human CFUGM; format: functional; conditions: CFU-GM
[32] = system: OVCAR-3; test: Cytotoxicity against human OVCAR-3 cells; format: functional, cell-based
[33] = Cytotoxicity against human HB60 cells; format: functional
[34] = Cytotoxicity against human MCF7/ADR-RES cells; format: functional; conditions: NCI/ADR-RES
[35] = system: NCI-H322M; test: Cytotoxicity against human NCI-H322M cells; format: functional
[36] = system: SNB-19; test: Cytotoxicity against human SNB19 cells; format: functional
[37] = Cytotoxicity against human CCRF-GEM cells; format: functional
[38] = system: SK-MEL-2; test: Cytotoxicity against human SK-MEL-2 cells; format: functional
[39] = system: T47D; test: Cytotoxicity against human T47D cells; format: functional
[40] = system: ACHN; test: Cytotoxicity against human ACHN cells; format: functional, cell-based
[41] = system: A498; test: Cytotoxicity against human A498 cells; format: functional
[42] = system: COLO 205; test: Cytotoxicity against human COLO205 cells
[43] = Cytotoxicity against human RES MDA-MB-231/ATCC cells; format: functional
[44] = system: HT-29; test: Cytotoxicity against human HT29 cells; format: functional
[45] = system: MOLT-4; test: Cytotoxicity against human MOLT4 cells
[46] = system: BT-549; test: Cytotoxicity against human BT-549 cells; format: functional
[47] = Cytotoxicity against human RPMI8266 cells; format: functional
[48] = system: OVCAR-5; test: Cytotoxicity against human OVCAR5 cells; format: functional, cell-based
[49] = system: LOX IMVI; test: Cytotoxicity against human LOXI MVI cells; format: functional, cell-based
[50] = system: SK-MEL-5; test: Cytotoxicity against human SK-MEL-5 cells; format: functional
[51] = system: UACC-62; test: Cytotoxicity against human UACC62 cells; format: functional
[52] = Cytotoxicity against mouse Ehrlich Ascites carcinoma by […] assay; format: functional
[53] = system: SN12C; test: Cytotoxicity against human SN12C cells; format: functional
[54] = system: 786-0; test: Cytotoxicity against human renal 7860 cells by soft agar assay; format: functional
[55] = system: HOP-62; test: Cytotoxicity against human HOP62 cells; format: functional
[56] = system: U-251; test: Cytotoxicity against human U251 cells; format: functional, cell-based
[57] = system: OVCAR-4; test: Cytotoxicity against human OVCAR4 cells; format: functional, cell-based
[58] = system: SK-OV-3; test: Cytotoxicity against human SK-OV-3 cells; format: functional, cell-based
[59] = system: EKVX; test: Cytotoxicity against human EKVX cells; format: functional

COc1ccc(OOc2ccc(OC)c3cc4c(cc23)[C@]2(C)CCC(=O)c3coc(c32)C4=O)c2cc3c(cc12)[C@@]1(C)CCC(=O)c2coc(c21)C3=O
Activity [1]: 56
Activity [2]: 5

CC/C(=C\[C@@]1(CC)C[C@H](CC)[C@H](CC(=O)OC)OO1)[C@@H]1O[C@@H]1CC [PLAKORSTATIN 2]
GI50 [3]: 3.8
GI50 [4]: 6.7
EC50 [5]: 0.91 µg/mL (≈ 2.67 µM)
GI50 [6]: 1.7
GI50 [7]: 1.6
GI50 [8]: >10
GI50 [9]: 6.4

CC(C)(O)C1=C[C@@]23CCC4C(C)(C)CCC[C@]4(C)[C@H]2C[C@H]1OO3 (stereo partly specified)
IC50 [10]: > 5 µg/mL
IC50 [11]: > 5 µg/mL
IC50 [12]: > 5 µg/mL
IC50 [13]: > 5 µg/mL
IC50 [14]: > 5 µg/mL

Cc1ccc2c(c1O)C(=O)c1c(cc(O)c(C(=O)O)c1C)[C@]2(C)OO[C@@]1(C)c2cc(O[C@H]3O[C@@H](CO)[C@@H](O)[C@@H](O)[C@@H]3O)c(C(=O)O)c(C)c2C(=O)c2c1ccc(C)c2O [ADXANTHROMYCIN A]
IC50 [15]: 18.8 µg/mL (≈ 23 µM)

CC/C(=C\[C@@]1(CC)C[C@H](CC)[C@H](CC(=O)OC)OO1)[C@H]1O[C@H]1CC [PLAKORSTATIN 1]
GI50 [3]: >10
GI50 [4]: >10
EC50 [5]: 1.1 µg/mL (≈ 3.23 µM)
GI50 [6]: >10
GI50 [7]: 1.8
GI50 [8]: >10
GI50 [9]: >10

C[C@H]1[C@H](O[C@H]2O[C@@H]3O[C@]4(C)CC[C@H]5[C@H](C)CC[C@@H]([C@H]2C)[C@@]35OO4)O[C@@H]2O[C@]3(C)CC[C@H]4[C@H](C)CC[C@@H]1[C@@]24OO3
GI50 ([3]; Homo sapiens, MCF7, read-out: GI50): 1.51 µg/mL (≈ 2.74 µM)
GI50 [16]: 1.7 µg/mL (≈ 3.09 µM)
GI50 [17]: > 25 µg/mL
GI50 [18]: > 25000 nM
GI50 [19]: > 25 µg/mL
GI50 [20]: > 25 µg/mL
GI50 [21]: 1150 nM
GI50 [22]: > 25 µg/mL
GI50 [23]: 3660 nM
GI50 ([1]; Homo sapiens, PC-3): 0.19 µg/mL (≈ 0.345 µM)
GI50 [24]: 1160 nM
GI50 [25]: 1040 nM
GI50 [26]: 710 nM
GI50 [27]: 880 nM
GI50 [28]: 3.68 µg/mL (≈ 6.68 µM)
GI50 [29]: 740 nM
GI50 [30]: 1.7 µg/mL (≈ 3.09 µM)
IC50 [31]: 52500 nM
GI50 [32]: 8.2 µg/mL (≈ 14.9 µM)
GI50 [33]: 610 nM
GI50 [34]: 1.45 µg/mL (≈ 2.63 µM)
GI50 [35]: > 25000 nM
GI50 [36]: > 25000 nM
GI50 [37]: 7510 nM
GI50 [38]: 16.9 µg/mL (≈ 30.7 µM)
GI50 [39]: 1.2 µg/mL (≈ 2.18 µM)
GI50 [40]: 3.5 µg/mL (≈ 6.36 µM)
GI50 [41]: > 25 µg/mL
GI50 [42]: 1170 nM
GI50 [43]: > 25 µg/mL
GI50 [44]: 1320 nM
GI50 [45]: 2370 nM
GI50 ([6]; Homo sapiens, DU-145, read-out: GI50): > 25 µg/mL
GI50 [46]: 1.3 µg/mL (≈ 2.36 µM)
GI50 [47]: 660 nM
GI50 [48]: > 25 µg/mL
GI50 [13]: 18700 nM
GI50 [49]: 1 µg/mL (≈ 1.82 µM)
GI50 [50]: > 3.6 µg/mL
GI50 [51]: 2 µg/mL (≈ 3.63 µM)
IC50 [52]: 31200 nM
GI50 [53]: > 16.8 µg/mL
GI50 [54]: 22 µg/mL (≈ 39.9 µM)
GI50 ([8]; Homo sapiens, NCI-H460, read-out: GI50): > 25000 nM
GI50 [55]: > 25000 nM
GI50 [56]: > 25000 nM
GI50 [57]: 8.6 µg/mL (≈ 15.6 µM)
GI50 [58]: > 25 µg/mL
GI50 [59]: 2160 nM

C[C@@H]1C[C@@H]([C@H](O)CC2CC(=O)NC(=O)C2)C(=O)[C@@H](C)C1 [CYCLOHEXIMIDE]
IC50 [10]: 0.1 µg/mL (≈ 0.355 µM)
IC50 [11]: 0.01 µg/mL (≈ 0.0355 µM)
IC50 [12]: 2.5 µg/mL (≈ 8.89 µM)
IC50 [13]: 0.1 µg/mL (≈ 0.355 µM)
IC50 [14]: 0.05 µg/mL (≈ 0.178 µM)
